Measured values taken from ChEMBL document CHEMBL5725581, “Compounds and compositions for treating HIV with derivatives of Betulin” (2018).

Experiment: MT4 Cell Antiviral Assay: Antiviral HIV activity and compound-induced cytotoxicity were measured in parallel by means of a propidium iodide based procedure in the human T-cell lymphotropic virus transformed cell line MT4. Aliquots of the test compounds were serially diluted in medium (RPMI 1640, 10% fetal calf serum (FCS), and gentamycin) in 96-well plates (Costar 3598) using a Cetus Pro/Pette. …
Description: MT4 Cell Antiviral Assay: Antiviral HIV activity and compound-induced cytotoxicity were measured in parallel by means of a propidium iodide based procedure in the human T-cell lymphotropic virus transformed cell line MT4. […] Exponentially growing MT4 cells were harvested and centrifuged at 1000 rpm for 10 min in a Jouan centrifuge (model CR 4 12). […] Cell infection was allowed to proceed for 1 hr at 37° C. in a tissue culture incubator with humidified 5% CO2 atmosphere. After the 1 hr incubation the virus/cell suspensions were diluted 6-fold with fresh medium, and 125 μl of the cell suspension was added to each well of the plate containing pre-diluted compound. Plates were then placed in a tissue culture incubator with humidified 5% CO2 for 5 days. […] After thorough mixing with a Costar multitip pipetter, 60 μl of the mixture was transferred to filter-bottomed 96-well plates. The plates were analyzed in an automated assay instrument (Screen Machine, Idexx Laboratories). The control and standard used was 3′-azido-3′-deoxythymidine tested over a concentration range of 0.01 to 1 μM in every assay. […] The assay makes use of a propidium iodide dye to estimate the DNA content of each well.For MTS readout, 20 μl CellTiter 96 AQ One Solution reagent (Promega #G3582) was added to each well.

In the case of `CC(C)C1=C2[C@H]3CC[C@@H]4[C@@]5(C)CC[C@H](OC(=O)CC(C)(C)CC(=O)O)C(C)(C)[C@@H]5CC[C@@]4(C)[C@]3(C)CC[C@@]2([C@H](O)CNCc2ccc(Cl)cc2)CC1=O`, the EC50 is reported as 104 nM.

For `CC(C)NC[C@H](O)[C@@]12CC[C@]3(C)[C@H](CC[C@@H]4[C@@]5(C)CC[C@H](OC(=O)CC(C)(C)C(=O)O)C(C)(C)[C@@H]5CC[C@]43C)C1=C(C(C)C)C(=O)C2`, the EC50 (MT4, 10 min) was 31.5 nM.
